Consider 19 molecules from patent publication US20100075978A1, “SULFONAMIDE DERIVATIVES AS BRADYKININ ANTAGONISTS” (priority 2006, published 2010).

Counter-ions that a name gives are not always drawn. Bounds are passed on as bounds.

The target of test [1] is T1, recombinant human B1 receptors (Homo sapiens, UniProt P46663).
T1 construct: host or cells: CHO (CHO-B1)
T1 sequence (P46663 1-353): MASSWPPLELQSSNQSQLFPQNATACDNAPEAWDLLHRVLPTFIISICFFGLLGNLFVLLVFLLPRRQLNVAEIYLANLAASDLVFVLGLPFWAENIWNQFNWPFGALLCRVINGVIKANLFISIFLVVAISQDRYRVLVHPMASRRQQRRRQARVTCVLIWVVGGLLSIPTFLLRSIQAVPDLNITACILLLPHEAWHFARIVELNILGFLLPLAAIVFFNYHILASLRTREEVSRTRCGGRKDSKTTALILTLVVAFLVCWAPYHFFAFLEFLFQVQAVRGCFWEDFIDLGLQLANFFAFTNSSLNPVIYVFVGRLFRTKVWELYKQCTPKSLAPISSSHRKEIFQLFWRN
Description: Functional assay: cytosolic calcium ion concentration measured with plate reader fluorimeter in CHO-B1 cells, agonist LysDABK. Type of test: cell-based. The note with it: CHO-B1 cells, LysDABK at EC80, [Ca2+]i; read-out: B1 func. How it is done: Assessment of Antagonist Potency at B1 and B2 Receptors In Vitro by Measurement of Cytosolic Calcium Ion Concentration with a Plate Reader Fluorimeter in Cells Expressing Recombinant Human B1 or B2 Receptors
Chinese hamster ovary (CHO) cells stably expressing recombinant human B1 (CHO-B1, Euroscreen) or B2 (CHO-B2, Perkin-Elmer) receptors were cultured in Dulbecco's Modified Eagle's Medium (DMEM) containing 10% Fetal Calf Serum (FCS), 100 U/ml penicillin, 0.1 mg/ml streptomycin, 0.25 μg/ml amphotericin B, 1% Minimum Essential Medium Eagle (MEM), non essential amino acid solution, 600 μg/ml G418, 1% pyruvate (for the B2 cell line). Cells were kept at 37° C. in a humidified incubator in an atmosphere of 5% CO2/95% air and were passaged 1:4 three times a week. Cells were plated at 1.5-2.5×10^4 cell/well on standard 96-well microplates, measurements of cytosolic calcium ion concentration ([Ca^2+]i) were carried out 1-2 days after cell plating.
Measurements of [Ca^2+]i were carried out on CHO-B1 and CHO-B2 cells stably expressing human B1 and B2 receptors, respectively. Cells were grown in standard 96-well microplates and before the measurement were loaded with a fluorescent Ca^2+-sensitive dye, fluo-4/AM (2 μM): after removing the culture medium the dye was added to the cells (dissolved in assay buffer: 145 mM NaCl, 5 mM KCl, 2 mM MgCl2, 2 mM CaCl2, 10 mM HEPES, 20 mM D-glucose, 2 mM probenecid, 100 μl/well) and cells were incubated at 37° C. in a humidified incubator in an atmosphere of 5% CO2/95% air for 40-120 min. To stop dye loading cells were washed twice with assay buffer. After washing, various concentrations of the test compounds (diluted in extracellular medium from a DMSO stock solution, final DMSO concentration was <0.1%) or buffer were added to each well depending on the experimental setup. After incubation at 37° C. for 20-25 min. baseline and agonist-evoked changes of [Ca^2+]i were measured column by column with a plate reader fluorimeter (Fluoroskan Ascent, Labsystems). Excitation and detection of emission was carried out from the bottom of the plate. Filters used for Fluo-4: excitation filter—485 nm, emission filter—538 nm. The whole measurement process was performed at 37° C. and was controlled by custom software. Inhibitory potency of the test compounds was assessed by measuring the reduction in the agonist-evoked [Ca^2]i-elevation in the presence of different concentrations of the compounds. The agonists were LysDABK for CHO-B1, and bradykinin for CHO-B2 cells. Agonists were applied at an EC80 concentration, the EC80-values were derived from daily determined dose-response curves. Fluorescence data were expressed as ΔF/F (fluorescence change normalized to baseline). All treatments on a single plate were measured in multiple wells. Data from all wells with the same treatment were averaged and the average values were used for analysis. Inhibitory potency of a compound at a single concentration point was expressed as percent inhibition of the control agonist response. Sigmoidal concentration-inhibition curves were fitted to the data (derived from at least three independent experiments) and IC50-values were determined as the concentration that produces half of the maximal inhibition caused by the compound.

Test [2] has as its target T2, human recombinant bradykinin B1 receptor (Homo sapiens, UniProt P46663).
T2 construct: purchased Euroscreen ES-091; host or cells: CHO cells
T2 sequence (P46663 1-353): T1 sequence (P46663 1-353)
Put plainly: Human recombinant bradykinin B1 receptor binding. To be noted: radioligand [3H]-[Des-Arg10] Kallidin, CHO cell membranes; read-out: B1 binding. On the procedure:
1. Human Recombinant Bradykinin B1 Receptor Binding
Binding assays were carried out on human recombinant bradykinin) receptors (expressed in CHO cells) according to the Euroscreen Technical Data Sheet (Cat.No.:ES-091). 20 μg protein/tube was incubated with [3,4-prolyl-3,4-^3H(N)]-[Des-Arg^10] Kallidin as radioligand. Non specific binding was determined in the presence of 10 μM Lys-des-Arg^9-Bradykinin. The final incubation volume was 250 μl. Samples were incubated for 15 min. at 25° C. then were rapidly vacuum filtered through GF/B filters presoaked for at least 1 h in 0.5% PEI. Radioactivity was determined by liquid scintillation spectroscopy.

Take “4-[1-(3,4-Dichloro-phenoxy)-phenylsulfamoyl]-N-[3-(4-pyridin-4-yl-piperazin-1-yl)-propyl]-benzamide [Example 66]”: the IC50 in test [1] is under 0.02 µM. Moreover, in test [2], the Ki is under 0.02 µM.
Regarding `O=C(NCCN1CCN(c2ccncc2)CC1)c1ccc(S(=O)(=O)Nc2ccccc2Oc2ccc(Cl)cc2Cl)cc1` [Example 1, 4-[2-(2,4-Dichloro-phenoxy)-phenylsulfamoyl]-N-{2-[4-pyridin-4-yl-piperazin-1-yl)-ethyl]-benzamide dihydrochloride], in test [1], the IC50 is under 0.02 µM. The Ki in test [2] was under 0.02 µM.
Turning to `O=C(NCCc1ccc(C2=NCCN2)cc1)c1ccc(S(=O)(=O)Nc2ccccc2Oc2ccc(Cl)cc2Cl)cc1` [Example 2, 4-[2-(2,4-Dichloro-phenoxy)-phenylsulfamoyl]-N-{2-[4-(4,5-dihydro-1H-imidazol-2-yl)-phenyl]-ethyl}-benzamide trifluoroacetate], the IC50 in test [1] was under 0.02 µM. Also, in test [2], the Ki is under 0.02 µM.
As to `O=C(NCCCN1CCC(N2CCCCC2)CC1)c1ccc(S(=O)(=O)Nc2ccccc2Oc2ccc(Cl)cc2Cl)cc1` [Example 3, N-(3-[1,4′]Bipiperidinyl-1′-yl-propyl)-4-[2-(2,4-dichloro-phenoxy)-phenylsulfamoyl]-benzamide], in test [1], the IC50 is under 0.02 µM. In test [2], the Ki is under 0.02 µM.
Take `O=C(NCCc1ccc(C2=NCCN2)cc1)c1ccc(S(=O)(=O)Nc2ccccc2Oc2ccc(Cl)c(Cl)c2)cc1` [Example 4, 4-[2-(3,4-Dichloro-phenoxy)-phenylsulfamoyl]-N-{2-[4-(4,5-dihydro-1H-imidazol-2-yl)-phenyl]-ethyl}-benzamide]: in test [1], the IC50 is under 0.02 µM. For the same molecule, the Ki in test [2] is under 0.02 µM.
Consider `O=C(NCCCN1CCC(N2CCCCC2)CC1)c1ccc(S(=O)(=O)Nc2ccccc2Oc2ccc(Cl)c(Cl)c2)cc1` [Example 5, N-(3-[1,4′]Bipiperidinyl-1′-yl-propyl)-4-[2-(3,4-dichloro-phenoxy)-phenylsulfamoyl]-benzamide], for which, in test [1], the IC50 was under 0.02 µM. In addition, the Ki in test [2] is under 0.02 µM.
Turning to `O=C(NCCc1ccc(C2=NCCN2)cc1)c1ccc(S(=O)(=O)Nc2ccccc2Oc2ccc(Cl)cc2)cc1` [Example 6, 4-[2-(4-Chloro-phenoxy)-phenylsulfamoyl]-N-{2-[4-(4,5-dihydro-1H-imidazol-2-yl)-phenyl]-ethyl}-benzamide], the IC50 in test [1] is under 0.02 µM. Moreover, the Ki in test [2] was under 0.02 µM.
On to `O=C(NCCc1ccc(C2=NCCN2)cc1)c1ccc(S(=O)(=O)Nc2ccccc2Oc2ccc(Br)cc2)cc1` [Example 7, 4-[2-(4-Bromo-phenoxy)-phenylsulfamoyl]-N-{2-[4-(4,5-dihydro-4H-imidazol-2-yl)-phenyl]-ethyl}-benzamide], for which the IC50 in test [1] is under 0.02 µM. Also, the Ki in test [2] is under 0.02 µM.
For the molecule `O=C(Nc1ccc(N2CCC(N3CCCCC3)CC2)cc1)c1ccc(S(=O)(=O)Nc2ccccc2Oc2ccc(Cl)cc2Cl)cc1` [Example 8, N-(4-[1,4′]Bipiperidinyl-1′-yl-phenyl)-4-[2-(2,4-dichloro-phenoxy)-phenylsulfamoyl]-benzamide], the IC50 in test [1] lay within 0.02 to 0.1 µM. The Ki in test [2] was under 0.02 µM.
For `O=C(N[C@H]1CC[C@H](CCN2CCCC2)CC1)c1ccc(S(=O)(=O)Nc2ccccc2Oc2ccc(Cl)cc2Cl)cc1` [Example 9, trans-4-[2-(2,4-Dichloro-phenoxy)-phenylsulfamoyl]-N-[4-(2-pyrrolidin-1-ylethyl)-cyclohexyl]-benzamide] the same measures were 0.02 to 0.1 µM and under 0.02 µM.
For `O=C(NCCN1CCN(c2ccncc2)CC1)c1cccc(S(=O)(=O)Nc2ccccc2Oc2ccc(Cl)cc2Cl)c1` [Example 10, 3-[2-(2,4-Dichloro-phenoxy)-phenylsulfamoyl]-N-[2-(4-pyridin-4-yl-piperazin-1-yl)-ethyl]-benzamide dihydrochloride] the same measures were 0.02 to 0.1 µM and under 0.02 µM.
For `O=C(NCCC1CCNCC1)c1ccc(S(=O)(=O)Nc2ccccc2Oc2ccc(Cl)cc2Cl)cc1` [Example 11, 4-[2-(2,4-Dichloro-phenoxy)-phenylsulfamoyl]-N-(2-piperidin-4-ylethyl)-benzamide trifluoroacetate] the same measures were 0.02 to 0.1 µM and 0.02 to 0.1 µM.
On to `O=C(NCCN1CCN(c2ccccn2)CC1)c1ccc(S(=O)(=O)Nc2ccccc2Oc2ccc(Cl)cc2Cl)cc1` [Example 20, 4-[2-(2,4-Dichloro-phenoxy)-phenylsulfamoyl]-N-[2-(4-pyridin-2-yl-piperazin-1-yl)-ethyl]-benzamide trifluoroacetate], for which the IC50 in test [1] was 0.02 to 0.1 µM. In addition, the Ki in test [2] is 0.02 to 0.1 µM.
In the case of `O=C(NCCc1ccc(C2=NCCN2)cc1)c1ccc(S(=O)(=O)Nc2ccccc2Oc2ccc(Br)cc2Cl)cc1` [Example 22, 4-[2-(4-Bromo-2-chloro-phenoxy)-phenylsulfamoyl]-N-{2-[4-(4,5-dihydro-1H-imidazol-2-yl)-phenyl]-ethyl}-benzamide], the IC50 in test [1] is under 0.02 µM. Further, the Ki in test [2] was under 0.02 µM.
Consider `N=C(N)NCc1ccc(CNC(=O)c2ccc(S(=O)(=O)Nc3ccccc3Oc3ccc(Br)cc3)cc2)cc1` [Example 23, 4-[2-(4-Bromo-phenoxy)-phenylsulfamoyl]-N-(4-guanidinomethyl-benzyl)-benzamide hydrochloride], for which the IC50 in test [1] lay within 0.1 to 0.5 µM. For the same molecule, in test [2], the Ki lay within 0.02 to 0.1 µM.
`CN1CCC(N2CCC(CCNC(=O)c3ccc(S(=O)(=O)Nc4ccccc4Oc4ccc(Cl)cc4Cl)cc3)CC2)CC1` [Example 24, 4-[2-(2,4-Dichloro-phenoxy)-phenylsulfamoyl]-N-[2-(1-methyl-[1,4′]bipiperidinyl-4-yl)-ethyl]-benzamide]: the IC50 in test [1] was under 0.02 µM. The Ki in test [2] is under 0.02 µM.
As to `CC(CNC(=O)c1ccc(S(=O)(=O)Nc2ccccc2Oc2ccc(Cl)cc2Cl)cc1)N1CCN(c2ccncc2)CC1` (centres unmarked) [Example 28, 4-[2-(2,4-Dichloro-phenoxy)-phenylsulfamoyl]-N-{2-[4-pyridin-4-yl-piperazin-1-yl)-propyl]-benzamide], the IC50 in test [1] is under 0.02 µM. In test [2], the Ki was under 0.02 µM.
`O=C(NCCNC(=O)C1CCNCC1)c1ccc(S(=O)(=O)Nc2ccccc2Oc2ccc(Cl)cc2Cl)cc1` [Example 29, Piperidine-4-carboxylic acid (2-{4-[2-(2,4-dichloro-phenoxy)-phenylsulfamoyl]-benzoylamino}-ethyl)-amide hydrochloride]: the IC50 in test [1] was 0.02 to 0.1 µM. Also, the Ki in test [2] was 0.02 to 0.1 µM.
`O=C(NCCCC1CCNCC1)c1ccc(S(=O)(=O)Nc2ccccc2Oc2ccc(Br)cc2Cl)cc1` [Example 30, 4-[2-(4-Bromo-2-chloro-phenoxy)-phenylsulfamoyl]-N-(3-piperidin-4-yl-propyl)-benzamide hydrochloride]: the IC50 in test [1] lay within 0.02 to 0.1 µM. Besides, in test [2], the Ki lay within 0.02 to 0.1 µM.
